According to PubChem BioAssay AID1996:
≈ marks a conversion by molar mass, not a printed value.

Details: buffer; pH 7.4; 200.0 µM

Row | SMILES | solubility kinetic
1 | O=C(Cc1ccc(Cl)cc1)N1CCN(c2ccc(F)cc2)CC1 | 19 µg/mL (≈ 57.1 µM)
2 | O=C(O)c1cc(-c2cccc([N+](=O)[O-])c2)nc2ccccc12 | > 44.1 µg/mL
3 | CCCNC(=O)COC(=O)/C=C/c1ccc(C)o1 | > 37.7 µg/mL
4 | Cc1cccnc1N1C(=O)c2ccc(C(=O)O)cc2C1=O | > 42.3 µg/mL
5 | CC(=O)Nc1cccc(NC(=O)C2C3C=CC(C3)C2C(=O)O)c1 (stereo not given) | > 47.2 µg/mL
6 | O=C(N1CCCC1)C12CC3CCC(CC(C3)C1)C2 | 28.4 µg/mL (≈ 115 µM)
7 | Cc1ccc(N2C(=O)c3ccccc3C2=O)cc1 | 2.7 µg/mL (≈ 11.4 µM)
8 | Cc1cc(/C=C2\NC(=O)NC2=O)c(C)n1-c1cccnc1 | 40.2 µg/mL (≈ 142 µM)
9 | CCOC(=O)c1c(C)[nH]c(C(=O)COC(=O)c2cc(C)oc2C)c1C | 3 µg/mL (≈ 8.64 µM)
10 | Cc1ccc(S(=O)(=O)NC(=NC(C)C)c2ccccc2)cc1 | > 47.5 µg/mL
11 | O=c1c2c3c(sc2[nH]c(=S)n1Cc1ccco1)CCC3 | 34.6 µg/mL (≈ 114 µM)
12 | Cc1cc(OC(=O)c2cccc(Cl)c2)c([N+](=O)[O-])c(=O)[nH]1 | 40.9 µg/mL (≈ 133 µM)
13 | CCc1ncc(C)nc1CC | 6.7 µg/mL (≈ 44.6 µM)
14 | CC(C)CC(NC(=O)C1CCCCC1)C(=O)NC(C)c1ccccc1 (stereo not given) | 24.4 µg/mL (≈ 70.8 µM)
15 | COC(=O)[C@@H](N)CCCN=C(N)N[N+](=O)[O-].Cl | > 40.5 µg/mL
16 | Cc1cc(Nc2ccc([N+](=O)[O-])cc2)c2ccccc2n1 | 0.6 µg/mL (≈ 2.15 µM)
17 | CCOC(=O)c1sc(Nc2cccc(Cl)c2)nc1C | < 0.3 µg/mL
18 | O=C(O)CNC(=S)N(Cc1ccc(F)cc1)C1CCCCC1 | > 48.7 µg/mL
19 | CCCCC(=O)Nc1ccc(C(=O)NCCN2CCOCC2)cc1 | > 50 µg/mL
20 | CS(=O)(=O)Cc1ccc(C(=O)NC2CCCc3ccccc32)cc1 (stereo not given) | 9.6 µg/mL (≈ 28 µM)
21 | CCn1c(SCC#N)nc2cc(S(=O)(=O)N3CCOCC3)ccc21 | > 55 µg/mL
22 | Cc1ccc(NC(=S)Nc2ccc3[nH]c(=O)[nH]c3c2)cc1C | 17.9 µg/mL (≈ 57.3 µM)
23 | NC(=O)c1cccc(NC(=O)Nc2ccc(Cl)cc2)c1 | 4.6 µg/mL (≈ 15.9 µM)
24 | Cc1cccc(NC(=O)C(C)Oc2ccc(C)nc2[N+](=O)[O-])c1 (stereo not given) | > 47.3 µg/mL

Row | SMILES | solubility kinetic
25 | Cc1nonc1CC(=O)N1CCCC(C(=O)c2ccc(Cl)cc2)C1 (stereo not given) | 48.2 µg/mL (≈ 139 µM)
26 | Cc1ccc(NC(=O)N2CCCCCC2)cc1C | > 37 µg/mL
27 | Cc1ccc(NC(=O)Nc2ccc3c(c2)OCO3)cc1F | < 0.3 µg/mL
28 | CC(C)(C)Sc1ccc([N+](=O)[O-])cc1C(=O)Nc1ccncc1 | > 49.7 µg/mL
29 | Nc1cccc(Oc2ccc3c(c2)C(=O)NC3=O)c1 | 36.6 µg/mL (≈ 144 µM)
30 | CC(Cc1ccccc1)N1Cc2ccccc2C1 (stereo not given) | 35.3 µg/mL (≈ 149 µM)
31 | c1ccc(C2CN3CCC2CC3)cc1 (stereo not given) | > 28.1 µg/mL
32 | CC(C)C[C@H](NC(=O)N1CCCCCC1)C(=O)O | > 38.5 µg/mL
33 | Cc1ccc(NC(=O)C2=C(C(=O)O)CCCC2)cc1Br | 33.3 µg/mL (≈ 98.5 µM)
34 | Cc1ccc(CNC(=O)CCn2c(=O)oc3ccccc32)cc1 | 5.1 µg/mL (≈ 16.4 µM)
35 | COc1cccc(NC(=O)Nc2cc(C)on2)c1 | > 37.1 µg/mL
36 | COc1cc(C)c(NC(=S)NCCCN2CCOCC2)cc1OC | > 53 µg/mL
37 | Cc1cnc(NS(=O)(=O)c2ccccc2)c(Br)c1 | > 49.1 µg/mL
38 | Nc1nc(COc2ccc(F)cc2Cl)nc(N2CCCCC2)n1 | 3.4 µg/mL (≈ 10.1 µM)
39 | COc1ccc(-c2noc(CCCC(=O)N3CCOCC3)n2)cc1 | 49.6 µg/mL (≈ 150 µM)
40 | Cc1cc(C)c(NC(=O)CCc2c(C)noc2C)c(C)c1 | > 43 µg/mL
41 | O=C(COC(=O)Cc1ccc(Br)cc1)Nc1ccc(Cl)cn1 | 3.9 µg/mL (≈ 10.2 µM)
42 | O=C(Nc1c[nH]c(=O)[nH]c1=O)c1cccc(F)c1 | 12.2 µg/mL (≈ 49 µM)
43 | Cc1[nH]c2ccc(Br)cc2c(=S)c1C/C=C/Cl | 5.3 µg/mL (≈ 16.1 µM)
44 | COc1ccccc1OC(=O)Nc1ccc(Cl)cc1 | 17.8 µg/mL (≈ 64.1 µM)
45 | COc1cccc(/C=N/c2nc3ccccc3[nH]2)c1O | 33.2 µg/mL (≈ 124 µM)
46 | O=C(NC(=S)Nc1cc([N+](=O)[O-])ccc1O)c1cccnc1 | 13.5 µg/mL (≈ 42.4 µM)
47 | CC1(C)CC(=O)C2=C(C1)NC(=O)NC2c1ccccc1 (stereo not given) | 39.9 µg/mL (≈ 148 µM)
48 | Cc1ccc(C)c(C(=O)COc2ncnc3ccccc23)c1 | 9.2 µg/mL (≈ 31.5 µM)

Row | SMILES | solubility kinetic
49 | CNS(=O)(=O)c1ccc(NC(=O)c2csc(C)c2)cc1 | 6.9 µg/mL (≈ 22.2 µM)
50 | O=C(Nc1ccccc1N1CCCCC1)c1cccc([N+](=O)[O-])c1 | 0.7 µg/mL (≈ 2.15 µM)
51 | CCOCCCNCc1cc(Br)ccc1OCC.Cl | > 52.9 µg/mL
52 | OCCN=C1CCCc2c1[nH]c1ccc(Cl)cc21 | 12.3 µg/mL (≈ 46.8 µM)
53 | COc1ccccc1CCC(=O)NNC(=O)c1ccncc1 | > 44.9 µg/mL
54 | Cc1cccc(-c2cnn(-c3ccccc3)c2N)c1 | > 37.4 µg/mL
55 | O=C(O)c1cc(N2C(=O)CCC2=O)ccc1Cl | > 38 µg/mL
56 | Cc1cccc(CCNCc2cc3ccc(C)cc3[nH]c2=O)c1 | 45.4 µg/mL (≈ 148 µM)
57 | Cn1c(=O)c2c(nc(Oc3ccccc3Cl)n2C)n(C)c1=O | 16 µg/mL (≈ 49.9 µM)
58 | Cc1cc(O)c(C2(O)C(=O)Nc3ccccc32)cc1C (stereo not given) | > 40.4 µg/mL
59 | CC1(C)C(=O)Nc2ccccc2N1C(=O)COC(=O)c1cccc(O)c1 | 20.3 µg/mL (≈ 57.3 µM)
60 | CCCn1c(=O)c2ccccc2n2c(=S)[nH]nc12 | > 39 µg/mL
61 | CN(Cc1ccccc1)C(=O)COc1ccc(C(C)(C)C)cc1 | < 0.7 µg/mL
62 | CC1=C(C(=O)c2ccccc2)C(c2ccc(O)cc2)NC(=S)N1 (stereo not given) | 21.8 µg/mL (≈ 67.2 µM)
63 | Cc1ccccc1C(=O)NC1CCSC1=O (stereo not given) | > 35.3 µg/mL
64 | Nc1cc(=O)[nH]c(SCC(=O)Nc2ccc(S(=O)(=O)N3CCCC3)cc2)n1 | > 61.4 µg/mL
65 | COc1ccc(C)cc1CN1C(=O)c2ccccc2C1=O | 4 µg/mL (≈ 14.2 µM)
66 | C[C@@H]1CN(Cc2nc(-c3ccc(Cl)cc3)no2)C[C@H](C)O1 | 44 µg/mL (≈ 143 µM)
67 | CC1CCCC(C)N1C(=O)COC(=O)c1nn(C)c(=O)c2ccccc12 (stereo not given) | > 53.6 µg/mL
68 | CC1CCN(CC(=O)N2c3ccccc3CC2C)CC1.Cl (stereo not given) | > 46.3 µg/mL
69 | NC(=O)C1CCN(C(=O)c2cc3ccccc3cc2O)CC1 | > 44.8 µg/mL
70 | O=c1oc2ccccc2c(CNc2ccccc2)c1[N+](=O)[O-] | 3.1 µg/mL (≈ 10.5 µM)
71 | CCC(C)C(Nc1ncnc2scc(-c3ccccc3)c12)C(=O)O (stereo not given) | > 51.2 µg/mL
72 | C=C(C)C(=O)Nc1cccnc1Oc1ccc(F)cc1F | 40.8 µg/mL (≈ 141 µM)

Row | SMILES | solubility kinetic
73 | Cc1ccccc1N1CCN(C(=O)NCc2cccc(Cl)c2)CC1 | 3.3 µg/mL (≈ 9.6 µM)
74 | O=C(CN1CCc2ccccc2C1)Nc1ccccc1F | 39.4 µg/mL (≈ 139 µM)
75 | CC(C)(C)c1ccc(/C=C(\C#N)C(=O)NCCN2CCOCC2)cc1 | 30.9 µg/mL (≈ 90.5 µM)
76 | COc1ccccc1CNC(=O)CS(=O)(=O)c1ccccc1 | 44 µg/mL (≈ 138 µM)
77 | CC(=O)N1CC(C(=O)Nc2ccc3c(c2)OCO3)Oc2ccccc21 (stereo not given) | > 51.1 µg/mL
78 | COC(=O)C1CCCN1C(=O)C12CC3CC(CC(C3)C1)C2 (stereo not given) | 41.9 µg/mL (≈ 144 µM)
79 | O=C(NC(=S)NC1CCSC1=O)c1cccc([N+](=O)[O-])c1 (stereo not given) | 43.2 µg/mL (≈ 133 µM)
80 | O=C(CNC(=O)c1ccco1)Nc1ccc2c(c1)OCCO2 | > 45.3 µg/mL
81 | COc1ccccc1C(=O)C1CCCN(Cc2cnc(C)s2)C1 (stereo not given) | > 49.6 µg/mL
82 | Clc1ccc(CN2CCN(c3ncccn3)CC2)cc1 | 29.6 µg/mL (≈ 102 µM)
83 | O=C(CC(c1ccc(F)cc1)c1ccco1)Nc1nccs1 (stereo not given) | 14.7 µg/mL (≈ 46.5 µM)
84 | CC(=O)NC(CSc1cc(C)nc2ccc(Br)cc12)C(=O)O (stereo not given) | 57.2 µg/mL (≈ 149 µM)
85 | N#C/C(=C\c1c[nH]c2ccccc12)C(=O)NC1CC1 | 11.4 µg/mL (≈ 45.4 µM)
86 | Cc1ccc2c(c1)C(=O)C(=O)N2CCCOc1ccccc1 | 2.7 µg/mL (≈ 9.14 µM)
87 | COc1ccccc1N1CCN(S(=O)(=O)c2ccc(Cl)cc2)CC1 | 4 µg/mL (≈ 10.9 µM)
88 | Cc1cc(N2CCCCC2C)nc(-c2ccccc2O)n1 (stereo not given) | 0.5 µg/mL (≈ 1.76 µM)
89 | Cc1nn(CC(=O)N(CC(C)C)C2CCS(=O)(=O)C2)c(C)c1[N+](=O)[O-] (stereo not given) | > 55.9 µg/mL
90 | O=C(COc1ccccc1F)OCC(=O)c1ccc([N+](=O)[O-])cc1 | 46.8 µg/mL (≈ 140 µM)
91 | O=C(CNC1CCCCC1)Nc1cccc([N+](=O)[O-])c1 | 31.4 µg/mL (≈ 113 µM)
92 | CCc1ccc(OCC(=O)Nc2ccc3oc(=O)ccc3c2)cc1 | 1.5 µg/mL (≈ 4.64 µM)
93 | O=C(Nc1ccccc1)c1cccc(Cn2cc(C(F)(F)F)ccc2=O)c1 | 2 µg/mL (≈ 5.37 µM)
94 | Cc1nc(Cc2ccc(OC(C)C)cc2)[nH]c(=O)c1CC(=O)O | > 47.5 µg/mL
95 | COc1ccc(NC(=S)N2CCc3cc(OC)c(OC)cc3C2)cc1 | 1.5 µg/mL (≈ 4.18 µM)
96 | Cn1cccc1C(=O)OCC(=O)c1c[nH]c2ccccc12 | 9.9 µg/mL (≈ 35.1 µM)

Row | SMILES | solubility kinetic
97 | Cc1ccc(NC(=O)c2cccc(N3C(=O)C4C5C=CC(C5)C4C3=O)c2)cc1C (stereo not given) | 1.5 µg/mL (≈ 3.88 µM)
98 | COC(=O)c1cnc(Nc2cc(C)ccc2OC)c2ccccc12 | 0.7 µg/mL (≈ 2.17 µM)
99 | COc1cccc(Nc2nc(-c3ccccc3O)nc3ccccc23)c1 | < 0.2 µg/mL
100 | Nc1ccc(N2CCCCC2)c2nonc12 | > 32.7 µg/mL
101 | COc1ccc(NC(=O)Cc2cccc3ccccc23)cc1 | 2.9 µg/mL (≈ 9.95 µM)
102 | Cc1cc(NC(=O)NC2CC(=O)N(c3ccc4c(c3)OCCO4)C2)no1 (stereo not given) | 48.5 µg/mL (≈ 135 µM)
103 | Cc1ccc(NC(=O)c2cnccn2)nc1 | > 32.1 µg/mL
104 | COc1ccc(OCCSc2nc(C)nc3ccccc23)cc1 | 0.6 µg/mL (≈ 1.84 µM)
105 | Cc1cc(Cl)nc(Cl)c1C(=O)NCCc1ccccc1 | > 46.4 µg/mL
106 | COc1cc(N)c(Cl)cc1C(=O)OCC(=O)NC1CCCC1 | > 49 µg/mL
107 | CCNC(=O)Nc1cc(OC)c(OC)cc1C(=O)O | > 40.2 µg/mL
108 | O=C(c1cc(C(=O)N2CCCC2)cc([N+](=O)[O-])c1)N1CCCC1 | > 47.6 µg/mL
109 | Cc1sc2ncnc(SCC(=O)N3CCOCC3)c2c1C | 39.3 µg/mL (≈ 122 µM)
110 | CCOC(=O)c1nc2c(ccc3ccccc32)cc1C | < 0.6 µg/mL
111 | CC(C)Oc1ccc(C(=O)OC(C)C(=O)NC2CCCCC2C)cc1 (stereo not given) | 4.4 µg/mL (≈ 12.7 µM)
112 | C[n+]1cccc(C(=O)Nc2ccccc2)c1.[Cl-] | 30 µg/mL
113 | CCCc1nc(SC)[nH]c(=O)c1C | > 29.7 µg/mL
114 | O=C(c1ccc(F)cc1)N1CCC2(CC1)OCCO2 | 39.2 µg/mL (≈ 148 µM)
115 | COc1cccc(C(=O)N(C)C(C)c2nc3ccccc3s2)c1 (stereo not given) | > 49 µg/mL
116 | COC(=O)c1c(NC(C)=O)sc(C)c1C | 31 µg/mL (≈ 136 µM)
117 | O=C(CSc1ccc(Cl)cc1)NCc1ccco1 | 16.3 µg/mL (≈ 57.8 µM)
118 | CCn1cc(C(=O)NCc2ccccc2)c2ccccc21 | 8 µg/mL (≈ 28.7 µM)
119 | O=C1NC(=S)NC(=O)C1=Cc1ccc(OCC(=O)N2CCCC2)cc1 | 51.8 µg/mL (≈ 144 µM)
120 | COc1ccc(OC)c(N=Cc2c(O)[nH]c(=O)[nH]c2=O)c1 | 7.1 µg/mL (≈ 24.4 µM)
